Patent US7763615B2, “Ecteinascidin analogs for use as antitumour agents” (priority 2001, dated 2010)
Like-named read-outs stand apart in the source and are kept apart here.

What was measured:
P388 lymphoma = conditions: mice, U.S. Pat. No. 5,149,804; cited from earlier work
B16 melanoma = conditions: mice, U.S. Pat. No. 5,149,804; cited from earlier work
Lewis lung carcinoma = conditions: mice, U.S. Pat. No. 5,149,804; cited from earlier work
A549 = test: cells; type: cell-based; conditions: for GI50: read-out: GI50; for CC50: read-out: LC50
Procedure, shortened: (§1)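 Human tumour lines grown in RPMI 1640 with 10% FBS were seeded at 5×10^3 cells per well, left 18 hours to attach, then exposed to samples (10 to 10^−8 μg/ml) for 48 hours. Growth was quantified by sulphorhodamine B staining of TCA-fixed cells, with absorbance read at 490 nm.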

DU145 = test: cells; type: cell-based; conditions: for CC50: read-out: LC50
Procedure, shortened: as §1

HT29 = test: cells; type: cell-based; conditions: for CC50: read-out: LC50
Procedure, shortened: as §1

IGROV-ET = test: cells; type: cell-based; conditions: IGROV-ET; for CC50: read-out: LC50
Procedure, shortened: as §1

IGROV = test: cells; type: cell-based
Procedure, shortened: as §1

K562 = test: cells; type: cell-based; conditions: for CC50: read-out: LC50
Procedure, shortened: as §1

LNCAP = test: cells; type: cell-based; conditions: LNCAP; for CC50: read-out: LC50
Procedure, shortened: as §1

LOVO-DOX = test: cells; type: cell-based; conditions: LOVO-DOX; for CC50: read-out: LC50
Procedure, shortened: as §1

LOVO = test: cells; type: cell-based; conditions: LOVO; for CC50: read-out: LC50
Procedure, shortened: as §1

MEL-28 = test: cells; type: cell-based; conditions: for CC50: read-out: LC50
Procedure, shortened: as §1

PANC-1 = test: cells; type: cell-based; conditions: for CC50: read-out: LC50
Procedure, shortened: as §1

SK-BR3 = test: cells; type: cell-based; conditions: for CC50: read-out: LC50
Procedure, shortened: as §1

H-MEC-1 = test: Inhibition of cells growth by colorimetric assay (SRB), H-MEC-1; type: cell-based; conditions: for CC50: read-out: LC50
Procedure, shortened: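 SRB colorimetric growth assay: 5×10^3 cells/well, 18 h attachment, 48 h continuous compound exposure at 10–10^−8 μg/ml in DMSO/EtOH/PBS. TCA fixation, SRB stain, OD 490 nm; triplicate wells, GI, TGI and LC derived.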

SK-OV3 = test: Inhibition of cells growth by colorimetric assay (SRB), SK-OV3; type: cell-based; conditions: for CC50: read-out: LC50
Procedure, shortened: as §1

[1] = tested on: AML-12, normal mouse liver cells; conditions: 24 h
[2] = tested on: NRK-52E, normal rat kidney cells; conditions: 24 h
Description: (§2) In order to assess the cytotoxicity of the drugs to normal cells, we used 96 well plates plated at a density of 5000 cells per well (except for the FDC-P1 which were plated at 12,000 cells per well) with normal cell lines (ATCC, Table 1) maintained as per the directions of the ATCC: AML-12, normal mouse liver cells; NRK-52E, normal rat kidney cells; L8, normal rat skeletal muscle cells; FDC-P1, normal mouse myelogeous stem cells; and H9c2 (2-1), normal rat cardiac muscle cells. The cells in each plate were permitted to settle overnight before adding the test drug.
(§3) To each well (100 μl medium) 10 μl of drug in media was added at varying concentrations (1×10-10-0.01 mg/ml final concentration) and further incubated overnight at 37° C. with 5% CO2. After 24 h the following assays were performed. All experiments were repeated at least 3 times and were assayed in duplicate.
(§4) MTS assay (CellTiter 96 aqueous) was performed according to the manufacturer's (Promega) directions (for all cell types). Cell viability (mitochondrial activity) is determined via enzymatic conversion of the formazan substrate.

[3] = tested on: L8, normal rat skeletal muscle cells; conditions: 24 h
Description: as §2, §3, §4

[4] = tested on: FDC-P1, normal mouse myelogeous stem cells; conditions: 24 h
Description: as §2, §3, §4

[5] = tested on: H9c2 (2-1), normal rat cardiac muscle cells; conditions: 24 h
[6] = 60 min
Description: The measurement of partition coefficient was evaluated based on a miniaturized shake-flask procedure. Buffer (Dulbecco's PBS, pH 7.40) was used as the aqueous phase. The tested compound was dissolved in DMSO, at the concentration of 100 μM. The final DMSO concentration (1%.) during the octanol-buffer partitioning are very low to avoid bias on the partitioning. The amount of compound in the buffer phase was determined by HPLC with photodiode array detection after an equilibration phase of 60 min. The amount of compound in the octanol phase is calculated by subtraction of the amount of compound in buffer from the total amount of compound, which is determined from a calibration sample.
Log D is calculated as the Log10 of the amount of compound in the octanol phase divided by the amount of compound in the buffer phase. The effective range of the log D microassay is approximately −0.5 to +4.5.

[7] = s9, 60 min, 1 μM
Description: The metabolic stability was determined used human liver S9 homogenate that including both microsomal and cytosolic enzyme activities. The test compound was diluted in methanol (0.625%) and acetonitrile (0.625%) at the concentration 1 μM and incubated in the human liver pool (protein=1 mg/mL) during 60 min at 37° C. Peak areas corresponding to all analytes (metabolic products) were determined by HPLC-MS/MS. Areas were recorded and ratios of peak areas of analytes to that of internal standard for each analyte were determined. The ratio of precursor compound remaining after 60 minutes and the amount remaining at time zero, expressed as percent, are reported as metabolic stability. Higher values mean higher metabolic stability.

CYP3A4 = CYP3A4 (Homo sapiens, UniProt P08684); conditions: 30 min, 10 µM
Sequence of CYP3A4 (P08684 whole entry): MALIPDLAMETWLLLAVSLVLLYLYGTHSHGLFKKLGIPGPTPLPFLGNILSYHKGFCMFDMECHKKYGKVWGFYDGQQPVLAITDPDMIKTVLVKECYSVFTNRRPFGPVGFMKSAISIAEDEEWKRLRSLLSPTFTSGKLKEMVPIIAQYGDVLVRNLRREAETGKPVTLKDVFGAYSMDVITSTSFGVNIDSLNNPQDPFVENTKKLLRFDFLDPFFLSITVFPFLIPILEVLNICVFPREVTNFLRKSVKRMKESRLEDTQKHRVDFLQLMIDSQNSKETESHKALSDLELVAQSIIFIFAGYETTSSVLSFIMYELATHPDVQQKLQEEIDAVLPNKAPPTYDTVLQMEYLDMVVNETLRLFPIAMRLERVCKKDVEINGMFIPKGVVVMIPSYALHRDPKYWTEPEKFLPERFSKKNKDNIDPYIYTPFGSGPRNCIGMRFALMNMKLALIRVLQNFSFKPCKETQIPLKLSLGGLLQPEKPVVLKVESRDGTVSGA
Description: For CYP3A4 inhibition assay, the compound were tested at 10 μM in duplicate with a 0.25% final concentration of both methanol and acetonitrile in presence of the fluorescent substrate BFC (50 μM). The conversion of the BFC (7-benzyloxy-4-trifluoromethylcoumarin) in HFC (7-hydroxy-4-trifluoromethylcoumarin) was determined spectro-fluormetry after incubation with the enzyme during 30 min at 37° C.
(§5) For both assays, the fluorescent intensity measured at t=0 is subtracted from that measured after the appropriate incubation time. The ratio of signal-to-noise is calculated by comparing the fluorescence in incubations containing the test compound to the control samples containing the same solvent vehicle. The percent of control activity is calculated and reported as percent inhibition.

(HEPG2) = conditions: human, 24 h, 30 μM
CYP2D6 [8] = biological target: T1, CYP2D6 (Homo sapiens, UniProt P10635); test: in vitro; conditions: CYP2D6 (% inhibition)
T1 sequence (P10635 whole entry): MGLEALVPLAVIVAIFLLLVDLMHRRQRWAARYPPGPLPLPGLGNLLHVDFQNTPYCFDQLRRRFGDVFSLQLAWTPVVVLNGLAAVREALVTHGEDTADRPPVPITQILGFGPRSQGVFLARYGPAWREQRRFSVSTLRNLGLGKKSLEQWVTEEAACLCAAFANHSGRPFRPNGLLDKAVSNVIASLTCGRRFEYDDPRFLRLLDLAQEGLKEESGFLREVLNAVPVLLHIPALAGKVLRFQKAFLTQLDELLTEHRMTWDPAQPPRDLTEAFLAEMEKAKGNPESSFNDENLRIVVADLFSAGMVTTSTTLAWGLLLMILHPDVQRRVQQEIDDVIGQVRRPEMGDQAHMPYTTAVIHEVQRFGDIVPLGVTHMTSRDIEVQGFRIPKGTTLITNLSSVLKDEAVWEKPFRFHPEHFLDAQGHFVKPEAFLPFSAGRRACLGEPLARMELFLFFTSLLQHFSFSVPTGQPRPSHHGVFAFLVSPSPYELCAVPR
Description: (§6) For CYP2D6 inhibition assay, the compound are tested at 10 μM in duplicate with a 0.25% final concentration of both methanol and acetonitrile in presence of the fluorescent substrate AMMC (3-[2-N,N-diethyl-N-methylammonium)ethyl]-7-methoxy-4-methylcoumarin) at the concentration of 1.5 μM). The conversion of the AMMC in AHMC (3-[2-N,N-diethyl-N-methylammonium)ethyl]-7-hydroxy-4-methylcoumarin) is determined spectrofluorimetry after incubation with the enzyme during 450 min at 37° C.
as §5

CYP2D6 [9] = biological target: T1, CYP2D6; conditions: 450 min, 10 µM
Description: as §6, §5

[10] = H-MEC-1, 48 hours exposure, SRB

In the case of `COc1c(C)cc2c(c1O)[C@H]1N[C@@H](C2)[C@H](O)N2[C@H]1[C@@H]1SC[C@]3(NCCc4c3[nH]c3ccccc43)C(=O)OC[C@H]2c2c3c(c(C)c(OC(C)=O)c21)OCO3` [Ecteinascidin 722, ecteinascidin 722], the “in vivo protection against P388 lymphoma” value (P388 lymphoma) is listed as “protect mice in vivo at very low concentrations”, the “in vivo protection against B16 melanoma” value (B16 melanoma) is listed as “protect mice in vivo at very low concentrations” and the “in vivo protection against Lewis lung carcinoma” value (Lewis lung carcinoma) is listed as “protect mice in vivo at very low concentrations”.
`COc1c(C)cc2c(c1O)[C@@H]1C3[C@@H]4SC[C@]5(NC(C)Cc6c5[nH]c5ccccc65)C(=O)COC[C@@H](c5c6c(c(C)c(OC(C)=O)c54)OCO6)N3[C@@H](O)[C@H](C2)N1C` (stereo partly shown) [Compound 44] showed a TGI (A549; A549) of 4.76E−08, a GI50 (A549; A549) of 27.4 nM and a CC50 (A549; A549) of 82.3 nM. The GI50 (DU145; DU145) was 6.54 nM, the TGI (DU145; DU145) was 1.18E−08 and the CC50 (DU145; DU145) was ≥ 13000 nM. The GI50 (HT29; HT29) was 59.8 nM, the TGI (HT29; HT29) was 4.59E−07 and the CC50 (HT29; HT29) was ≥ 13000 nM. It also gave a GI50 (IGROV-ET) of 28.5 nM, a TGI (IGROV-ET) of 7.06E−08 and a CC50 (IGROV-ET) of 130 nM. It also gave a GI50 (IGROV) of 4.29 nM, a TGI (IGROV) of 1.22E−08 and a CC50 (IGROV; read-out: LC50) of 93 nM. For the same compound, the GI50 (K562; K562) was 3.94 nM, the TGI (K562; K562) was 9.38E−09 and the CC50 (K562; K562) was 107 nM. For the same compound, the GI50 (LNCAP) was 4.3 nM, the TGI (LNCAP) was 8.84E−09 and the CC50 (LNCAP) was 31.1 nM. The GI50 (LOVO-DOX) was 91 nM, the TGI (LOVO-DOX) was 8.53E−07 and the CC50 (LOVO-DOX) was ≥ 13000 nM. The GI50 (LOVO) was 27.1 nM, the TGI (LOVO) was 5.10E−08 and the CC50 (LOVO) was 96.1 nM. It also gave a GI50 (MEL-28; MEL-28) of 2.63 nM, a TGI (MEL-28; MEL-28) of 5.22E−09 and a CC50 (MEL-28; MEL-28) of 10.3 nM. The GI50 (PANC-1; PANC-1) was 56.7 nM, the TGI (PANC-1; PANC-1) was 1.55E−07 and the CC50 (PANC-1; PANC-1) was ≥ 13000 nM. For the same compound, the GI50 (SK-BR3; SK-BR3) was 12.7 nM, the TGI (SK-BR3; SK-BR3) was 4.27E−08 and the CC50 (SK-BR3; SK-BR3) was 177 nM. The GI50 (H-MEC-1; H-MEC-1) was 75.3 nM, the TGI (H-MEC-1; H-MEC-1) was 1.31E−06 and the CC50 (H-MEC-1; H-MEC-1) was ≥ 13000 nM. The GI50 (SK-OV3; SK-OV3) was 37.5 nM, the TGI (SK-OV3; SK-OV3) was 1.31E−07 and the CC50 (SK-OV3; SK-OV3) was ≥ 13000 nM. The Liver [1] was 4.33E−07, the Kidney [2] was 4.15E−07 and the Skeletal [3] was 4.02E−08. The Myelo [4] was 1.21E−07, the Heart [5] was 5.20E−06 and the “log D n-Octanol-Dulbecco's PBS pH 7.4” value [6] was >4.9. The “Human Liver S9 Metabolic Stability (% remaining)” value [7] was 4 % remaining, the “CYP3A4 (% inhibition)” value (CYP3A4) was 72 % inhibition and the “Cell Viability (% inhibition)” value ((HEPG2)) was 73 % inhibition. For the same compound, the “Solubility Dulbecco's PBS pH 7.4” value was 20.69 μM and the inhibition at 450 min, 10 µM (CYP2D6 [8]) was 16%.
In the case of `COc1c(C)cc2c(c1O)[C@@H]1C3[C@@H]4SC[C@]5(NCCc6c5[nH]c5ccccc65)C(=O)OC[C@@H](c5c6c(c(C)c(OC(C)=O)c54)OCO6)N3[C@@H](O)[C@H](C2)N1C` (stereo partly shown) [Ecteinascidin 736, ecteinascidin 736], the “in vivo protection against P388 lymphoma” value (P388 lymphoma) is listed as “protect mice in vivo at very low concentrations”, the “in vivo protection against B16 melanoma” value (B16 melanoma) is listed as “protect mice in vivo at very low concentrations” and the “in vivo protection against Lewis lung carcinoma” value (Lewis lung carcinoma) is listed as “protect mice in vivo at very low concentrations”.
In the case of `COc1c(C)cc2c(c1O)[C@@H]1C3[C@@H]4SC[C@]5(NC(C)Cc6c5[nH]c5ccc(F)cc65)C(=O)COC[C@@H](c5c6c(c(C)c(OC(C)=O)c54)OCO6)N3[C@@H](O)[C@H](C2)N1C` (stereo partly shown) [Compound 42], the TGI (A549; A549, 48 hours exposure, SRB) is reported as 4.09E−08 Molar, the GI50 (A549; A549, 48 hours exposure, SRB) is reported as 22 nM and the CC50 (A549; A549, 48 hours exposure, SRB) is reported as 75.9 nM. For the same compound, the GI50 (DU145; DU145, 48 hours exposure, SRB) was 3.51 nM, the TGI (DU145; DU145, 48 hours exposure, SRB) was 7.97E−09 Molar and the CC50 (DU145; DU145, 48 hours exposure, SRB) was 12.7 nM. It also gave a GI50 (HT29; HT29, 48 hours exposure, SRB) of 34.1 nM, a TGI (HT29; HT29, 48 hours exposure, SRB) of 1.42E−07 Molar and a CC50 (HT29; HT29, 48 hours exposure, SRB) of 12700 nM. The GI50 (IGROV-ET; 48 hours exposure, SRB) was 43.2 nM, the TGI (IGROV-ET; 48 hours exposure, SRB) was 9.42E−08 Molar and the CC50 (IGROV-ET; 48 hours exposure, SRB) was 12700 nM. For the same compound, the GI50 (IGROV; 48 hours exposure, SRB) was 2.44 nM, the TGI (IGROV; 48 hours exposure, SRB) was 5.12E−09 Molar and the CC50 (IGROV; read-out: LC50, 48 hours exposure, SRB) was 10.7 nM. For the same compound, the GI50 (K562; K562, 48 hours exposure, SRB) was 4.77 nM, the TGI (K562; K562, 48 hours exposure, SRB) was 9.15E−09 Molar and the CC50 (K562; K562, 48 hours exposure, SRB) was 2810 nM. For the same compound, the GI50 (LNCAP; 48 hours exposure, SRB) was 3.74 nM, the TGI (LNCAP; 48 hours exposure, SRB) was 6.61E−09 Molar and the CC50 (LNCAP; 48 hours exposure, SRB) was 11.7 nM. The GI50 (LOVO-DOX; 48 hours exposure, SRB) was 45.9 nM, the TGI (LOVO-DOX; 48 hours exposure, SRB) was 2.05E−07 Molar and the CC50 (LOVO-DOX; 48 hours exposure, SRB) was 12700 nM. The GI50 (LOVO; 48 hours exposure, SRB) was 13.5 nM, the TGI (LOVO; 48 hours exposure, SRB) was 4.37E−08 Molar and the CC50 (LOVO; 48 hours exposure, SRB) was 127 nM. The GI50 (MEL-28; MEL-28, 48 hours exposure, SRB) was 0.404 nM, the TGI (MEL-28; MEL-28, 48 hours exposure, SRB) was 9.77E−10 Molar and the CC50 (MEL-28; MEL-28, 48 hours exposure, SRB) was 6.19 nM. It also gave a GI50 (PANC-1; PANC-1, 48 hours exposure, SRB) of 16.9 nM, a TGI (PANC-1; PANC-1, 48 hours exposure, SRB) of 8.25E−08 Molar and a CC50 (PANC-1; PANC-1, 48 hours exposure, SRB) of 12700 nM. For the same compound, the GI50 (SK-BR3; SK-BR3, 48 hours exposure, SRB) was 6.63 nM, the TGI (SK-BR3; SK-BR3, 48 hours exposure, SRB) was 2.44E−08 Molar and the CC50 (SK-BR3; SK-BR3, 48 hours exposure, SRB) was 87.3 nM. For the same compound, the GI50 (H-MEC-1; [10]) was 40.4 nM, the TGI (H-MEC-1; [10]) was 2.47E−07 Molar and the CC50 (H-MEC-1; [10]) was 12700 nM. For the same compound, the GI50 (SK-OV3; SK-OV3, 48 hours exposure, SRB) was 7.37 nM, the TGI (SK-OV3; SK-OV3, 48 hours exposure, SRB) was 7.92E−07 Molar and the CC50 (SK-OV3; SK-OV3, 48 hours exposure, SRB) was 12700 nM. The Liver [1] was 1.86E−07, the Kidney [2] was 1.12E−09 and the Skeletal [3] was 3.37E−08. The Myelo [4] was 6.41E−08, the Heart [5] was 1.42E−07 and the “log D n-Octanol-Dulbecco's PBS pH 7.4” value [6] was >4.8. The “Human Liver S9 Metabolic Stability (% remaining)” value [7] was 5 % remaining, the “CYP2D6 (% inhibition)” value (CYP2D6 [9]) was 19 % inhibition and the “CYP3A4 (% inhibition)” value (CYP3A4) was 78 % inhibition. The “Cell Viability (% inhibition)” value ((HEPG2)) was 67 % inhibition and the “Solubility Dulbecco's PBS pH 7.4” value was 10.37 μM.
